Experimental data reported in patent US8067468B2, “L-carnitine and alkanoyl L-carnitine phytates and process for preparing the same” (priority 2009, dated 2011).
Where a name gives a salt, the structure may show the parent alone. Blank lines part the entries; values can stand above or below the compound they belong to.

What was measured:
[1] = Odor of the dried product (sign of decomposition / acid smell); assay type: physicochemical; conditions: dried solid product
Experimental: According to one embodiment, 96.7 grams (0.6 mole) of L-carnitine inner salt (C7H15NO3, molecular weight 161.20) was added to a 50% aqueous solution (having a pH value <1) of 66.0 grams (0.1 mole) phytic acid and stirred at room temperature resulting in an exothermic reaction. […] According to one embodiment, the solution (having a pH value of about 4) was further stirred 20 minutes. […] According to one embodiment, the residue is further dried in a vacuum oven at 50° C. to obtain 166.2 grams of white solid powder with an almost quantitative yield (i.e., the white solid powder contains 2% H2O).
According to one embodiment, 122.09 grams (0.6 mole) of acetyl L-carnitine inner salt (C9H17NO4, molecular weight 203.24) was added to a 50% aqueous solution (having a pH value <1) of 66.0 grams (0.1 mole) phytic acid and stirred at room temperature resulting in an exothermic reaction. […] According to one embodiment, the residue is further dried in a vacuum oven at 50° C. to obtain 192.7 grams of white solid powder with an almost quantitative yield (i.e., the white solid powder contains 2% H2O). […]

[2] = pH value of the product (c=1% H2O); assay type: physicochemical
Experimental: According to one embodiment, the solution (having a pH value of about 4) was further stirred 20 minutes. According to one embodiment, the solution was concentrated on an evaporator under a vacuum at 50° C. According to one embodiment, the residue was repeatedly (3 times) taken up using anhydrous ethanol under a vacuum to dry the solution as much as possible.

[3] = cited from earlier work
[4] = post-administration, independent of route; cited from earlier work
[5] = tested on: human mammary cancer cell line; conditions: incubated with a human mammary cancer cell line; cited from earlier work
[6] = tested on: mice; test: Single dose oral acute toxicity study (LD50); assay type: in vivo
Experimental: The single dose oral acute toxicity of L-carnitine phytate (in a 6:1 mole ratio) was evaluated in mice. Five dosages (25, 20, 15, 10, and 5 g/Kg) were orally administrated to five groups of mice in which each group had five male and five female mice. After dosing, the five groups of mice were observed and daily records (for 14 days) were made of their general conditions, toxic response, and deaths. All of the dead mice were necropsied, in which each of the body's thorace and abdomen were opened, and each heart, liver, spleen, lung, kidney, and intestine were examined and recorded.

Compound: CC(=O)O[C@H](CC(=O)O)C[N+](C)(C)C [Example Embodiment 3, Acetyl L-Carnitine Phytate (in a 6:1 mole ratio)]
odor [1]: odorless
pH value [2]: 4

pH value [2]: 4
Compound: CC(C)C(=O)O[C@H](CC(=O)O)C[N+](C)(C)C [Example Embodiment 6, Isobutyryl L-Carnitine Phytate (in a 6:1 mole ratio)]

Compound: C[N+](C)(C)C[C@H](O)CC(=O)[O-] [L-carnitine's inner salt, L-carnitine inner salt]
pKa value [3]: 3.8

Compound: O=P(O)(O)O[C@H]1[C@H](OP(=O)(O)O)[C@@H](OP(=O)(O)O)[C@H](OP(=O)(O)O)[C@@H](OP(=O)(O)O)[C@H]1OP(=O)(O)O [phytic acid, Phytic acid]
pKa of the remaining three very weakly acidic sites [3]: greater than 10
pKa of the six strongly acidic proton dissociation sites ([3]; first dissociation proton of each phosphate group): ~1.5
time to reach targeted tumor tissue [4]: as early as one hour post-administration
time of first detection of IP6 in cells [5]: as early as one minute post-incubation

pH value [2]: 4
Compound: Butyryl L-Carnitine Phytate (in a 6:1 mole ratio) [Example Embodiment 5]

Compound: L-Carnitine Phytate (in a 6:1 mole ratio) [Example Embodiment 2]
necropsy findings in hearts, livers, spleens, lungs, kidneys and intestines ([6]; single oral dose 5-25 g/Kg, dead mice necropsied): not any obvious abnormalities observed
acute oral LD50 ([6]; single oral dose, observed for 14 days): 14.86 g/kg

odor [1]: odorless
pH value [2]: 4
Compound: Propinoyl L-Carnitine Phytate (in a 6:1 mole ratio) [Example Embodiment 4]
